From patent US20030157107A1, “Agents for preventing or ameliorating insulin resistance and/or obesity” (priority 2000, published 2003)
No end group written: not given here.

Tests used:
[1] = system: glucose absorption by the intestine; details: reported in WO98/24464; cited from earlier work
[2] = system: CHO cells without transfer of receptor genes; assay: Inhibition of forskolin-stimulated cAMP production in CHO cells without transfer of receptor genes; assay type: cell-based; details: 5 μM forskolin
Description: (§1) Screening of low molecular GIP function inhibitors was performed in accordance with the Example 1 of the screening method. Specifically, the GIP-receptor expressing CHO cells were stimulated with 100 pM GIP in the presence and absence of the test compound, and the amount of produced cAMP was measured to determine the GIP function inhibitory activity of the test compound. In addition, in order to confirm the receptor specificity of the test compound, the CHO cells expressing receptors of GLP-1 and glucagon which belong to glucagon-secretin family like GIP were stimulated with GLP-1 and glucagon (100 pM), respectively, and the inhibitory activity of the test compound on production of CAMP was determined. Moreover, in order to determine other effects which are unrelated to these receptors, the CHO cells without introducing any of these receptor genes were stimulated with 5 μM forskolin, and the inhibitory effect of the test compound on production of cAMP was determined. As for positive control, 500 nM GIP (7-30)-NH2 (tGIP) was used. [drawing 1]

GIP-receptor = target: T1, GIP-receptor (Homo sapiens, UniProt P48546); assay: Inhibition of GIP-stimulated cAMP production in GIP-receptor expressing CHO cells; assay type: cell-based; details: CHO cells expressing GIP-receptor stimulated by 100 pM GIP; read-out: EC50 of inhibition of the cAMP production inducing effect of GIP
T1 construct: expressed in transfected cells; host or cells: CHO cells
T1 sequence (P48546 22-466): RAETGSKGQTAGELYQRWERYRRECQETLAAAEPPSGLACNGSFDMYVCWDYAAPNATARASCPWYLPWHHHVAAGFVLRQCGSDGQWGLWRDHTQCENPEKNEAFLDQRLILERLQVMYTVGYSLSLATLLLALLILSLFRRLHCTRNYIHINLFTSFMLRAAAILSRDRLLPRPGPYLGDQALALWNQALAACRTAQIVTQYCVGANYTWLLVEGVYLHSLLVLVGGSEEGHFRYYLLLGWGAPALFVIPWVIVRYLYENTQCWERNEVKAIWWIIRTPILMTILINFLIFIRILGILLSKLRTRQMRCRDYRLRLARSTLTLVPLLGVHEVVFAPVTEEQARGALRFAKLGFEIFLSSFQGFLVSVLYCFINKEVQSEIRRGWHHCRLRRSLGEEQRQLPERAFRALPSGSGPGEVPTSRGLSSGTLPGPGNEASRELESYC
Description: 1. A method for screening drugs by monitoring an inhibitory activity on the production of cAMP, an intracellular transmitter of GIP, which according to the method described by Kubota et al. (Diabetes, 45: 1701-1705, 1996), uses the human GIP-receptor expressing cells where […] is introduced into the CHO cells, and make cAMP produced by GIP in Krebs-Ringer buffer solution containing 1 mM isobutylmethylxanthine at 37° C. for 30 minutes in the presence of the drug. Then cAMP is extracted with 30% trichloroacetic acid, and radioimmunoassay is used to quantitate cAMP. Alternatively, Scintillation Proximity Assay (SPA) provided by Amersham Pharmacia Biotech Co., Inc. is used to quantitate cAMP.
Screening of low molecular GIP function inhibitors was performed in accordance with the Example 1 of the screening method. Specifically, the GIP-receptor expressing CHO cells were stimulated with 100 pM GIP in the presence and absence of the test compound, and the amount of produced cAMP was measured to determine the GIP function inhibitory activity of the test compound. […] Moreover, in order to determine other effects which are unrelated to these receptors, the CHO cells without introducing any of these receptor genes were stimulated with 5 μM forskolin, and the inhibitory effect of the test compound on production of cAMP was determined. […]

glucagon-receptor = target: T2, glucagon-receptor (Homo sapiens, UniProt P47871); assay: Inhibition of glucagon-stimulated cAMP production in CHO cells expressing glucagon-receptor; assay type: cell-based; details: CHO cells expressing glucagon-receptor stimulated by 100 pM glucagon, read-out: inhibitory rate on the action of glucagon (cAMP production)
T2 construct: expressed in transfected cells; host or cells: CHO cells
Description: as §1

GLP-1-receptor = target: T3, GLP-1-receptor (Homo sapiens, UniProt P43220); assay: Inhibition of GLP-1-stimulated cAMP production in CHO cells expressing GLP-1-receptor; assay type: cell-based; details: CHO cells expressing GLP-1-receptor stimulated by 100 pM GLP-1
T3 construct: expressed in transfected cells; host or cells: CHO cells
Description: as §1

C57BL/6j mice = assay: GIP administration and high fat diet loading test in normal mice; assay type: in vivo; details: high fat diet
Description: The animals used were 17-week-old male C57BL/6j mice. An osmotic pump was implanted under the skin of the back of each animal. Groups of animals each consisting of 5 mice were continuously given GIP 20, 60 or 200 μg/kg/hour or physiological saline as control, and also given either high fat diet or control normal diet. The energy composition of high fat diet was: lipid 45%, carbohydrate 38%, and protein 17%. The energy composition of control normal diet was: lipid 13%, carbohydrate 60%, and protein 27%. The energy contents of high fat and control normal diets were 4.77 and 3.57 kcal/g, respectively. GIP administration and high fat diet loading were continued for 4 weeks.
The body weights were measured weekly, and their changes were compared between the groups. The blood samples were collected under fasting 4 weeks after the start of the experiment to determine the blood glucose and insulin levels.

[3] = continuous GIP 20, 60 or 200 μg/kg/hour, after 4 weeks, vs same diet without GIP

T2 sequence (P47871 26-477, species assumed): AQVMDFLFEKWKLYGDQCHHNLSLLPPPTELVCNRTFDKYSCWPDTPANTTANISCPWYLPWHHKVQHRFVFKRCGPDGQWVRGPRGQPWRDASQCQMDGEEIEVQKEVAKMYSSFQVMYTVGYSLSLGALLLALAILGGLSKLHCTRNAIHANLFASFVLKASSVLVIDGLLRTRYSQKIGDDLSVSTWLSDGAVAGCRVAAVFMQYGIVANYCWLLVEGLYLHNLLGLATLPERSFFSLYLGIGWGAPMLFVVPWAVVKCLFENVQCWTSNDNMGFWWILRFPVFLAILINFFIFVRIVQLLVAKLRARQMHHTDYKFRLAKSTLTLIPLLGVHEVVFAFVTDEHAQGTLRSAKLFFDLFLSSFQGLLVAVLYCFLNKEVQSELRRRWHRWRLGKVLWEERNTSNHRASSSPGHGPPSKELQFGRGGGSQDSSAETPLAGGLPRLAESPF
T3 sequence (P43220 24-463, species assumed): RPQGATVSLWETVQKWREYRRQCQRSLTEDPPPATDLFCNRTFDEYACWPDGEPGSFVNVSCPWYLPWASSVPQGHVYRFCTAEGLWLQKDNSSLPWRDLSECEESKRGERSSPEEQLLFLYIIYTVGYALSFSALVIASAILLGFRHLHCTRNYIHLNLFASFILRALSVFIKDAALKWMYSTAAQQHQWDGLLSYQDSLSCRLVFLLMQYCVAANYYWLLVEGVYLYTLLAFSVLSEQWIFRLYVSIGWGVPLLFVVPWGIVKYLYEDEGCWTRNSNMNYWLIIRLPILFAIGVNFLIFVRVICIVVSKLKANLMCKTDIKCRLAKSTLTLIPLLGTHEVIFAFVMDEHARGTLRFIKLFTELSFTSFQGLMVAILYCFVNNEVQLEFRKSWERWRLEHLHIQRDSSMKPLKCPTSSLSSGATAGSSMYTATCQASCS

## GIP (7-30)-NH2: fragmented peptide of GIP, known GIP-receptor antagonist, used as positive control (ISDYSIAMDKIHQQDFVNWLLAQK-NH2; UniProt P09681 58-81, looked up, fragment)
[1]
  glucose absorption by the intestine: suppressed glucose absorption by the intestine

## Cc1cc(O)n2nc(-c3ccccc3)c(Br)c2n1 [BMPP, 3-bromo-5-methyl-2-phenylpyrazolo[1,5-a]pyrimidine-7-ol]
[2]
  inhibitory effect on cAMP production stimulated by forskolin: did not show any inhibitory effect
GIP-receptor
  EC50: ~30 µM
glucagon-receptor
  inhibition at 80 µM: 27%
GLP-1-receptor
  inhibitory effect on GLP-1 action (cAMP production): almost no inhibitory effect

## GIP: gastric inhibitory polypeptide or glucose-dependent insulinotropic peptide, a gastrointestinal hormone (YAEGTFISDYSIAMDKIHQQDFVNWLLAQKGKKNDWKHNITQ; Gastric inhibitory polypeptide; UniProt P09681 52-93, looked up)
C57BL/6j mice; continuous GIP 20, 60 or 200 μg/kg/hour by osmotic pump, 4 weeks
  body weight gain: No further increase in the body weight gain
C57BL/6j mice; [3]
  fasting blood glucose levels: increased depending on the dose of GIP
  fasting blood insulin levels: tended to increase depending on the dose of GIP
